Source: ChEMBL document CHEMBL3714729, “Heterocyclic compounds for the inhibition of pask” (2012)
pIC50: −log10 of the molar value.

target: PAS domain-containing serine/threonine-protein kinase (Homo sapiens, UniProt Q96RG2); assay: Inhibition of human recombinant PASK using Ulight-peptide substrate incubated for 2 hrs by TR-FRET assay
Sequence (Q96RG2 whole entry, the tested form may be a part): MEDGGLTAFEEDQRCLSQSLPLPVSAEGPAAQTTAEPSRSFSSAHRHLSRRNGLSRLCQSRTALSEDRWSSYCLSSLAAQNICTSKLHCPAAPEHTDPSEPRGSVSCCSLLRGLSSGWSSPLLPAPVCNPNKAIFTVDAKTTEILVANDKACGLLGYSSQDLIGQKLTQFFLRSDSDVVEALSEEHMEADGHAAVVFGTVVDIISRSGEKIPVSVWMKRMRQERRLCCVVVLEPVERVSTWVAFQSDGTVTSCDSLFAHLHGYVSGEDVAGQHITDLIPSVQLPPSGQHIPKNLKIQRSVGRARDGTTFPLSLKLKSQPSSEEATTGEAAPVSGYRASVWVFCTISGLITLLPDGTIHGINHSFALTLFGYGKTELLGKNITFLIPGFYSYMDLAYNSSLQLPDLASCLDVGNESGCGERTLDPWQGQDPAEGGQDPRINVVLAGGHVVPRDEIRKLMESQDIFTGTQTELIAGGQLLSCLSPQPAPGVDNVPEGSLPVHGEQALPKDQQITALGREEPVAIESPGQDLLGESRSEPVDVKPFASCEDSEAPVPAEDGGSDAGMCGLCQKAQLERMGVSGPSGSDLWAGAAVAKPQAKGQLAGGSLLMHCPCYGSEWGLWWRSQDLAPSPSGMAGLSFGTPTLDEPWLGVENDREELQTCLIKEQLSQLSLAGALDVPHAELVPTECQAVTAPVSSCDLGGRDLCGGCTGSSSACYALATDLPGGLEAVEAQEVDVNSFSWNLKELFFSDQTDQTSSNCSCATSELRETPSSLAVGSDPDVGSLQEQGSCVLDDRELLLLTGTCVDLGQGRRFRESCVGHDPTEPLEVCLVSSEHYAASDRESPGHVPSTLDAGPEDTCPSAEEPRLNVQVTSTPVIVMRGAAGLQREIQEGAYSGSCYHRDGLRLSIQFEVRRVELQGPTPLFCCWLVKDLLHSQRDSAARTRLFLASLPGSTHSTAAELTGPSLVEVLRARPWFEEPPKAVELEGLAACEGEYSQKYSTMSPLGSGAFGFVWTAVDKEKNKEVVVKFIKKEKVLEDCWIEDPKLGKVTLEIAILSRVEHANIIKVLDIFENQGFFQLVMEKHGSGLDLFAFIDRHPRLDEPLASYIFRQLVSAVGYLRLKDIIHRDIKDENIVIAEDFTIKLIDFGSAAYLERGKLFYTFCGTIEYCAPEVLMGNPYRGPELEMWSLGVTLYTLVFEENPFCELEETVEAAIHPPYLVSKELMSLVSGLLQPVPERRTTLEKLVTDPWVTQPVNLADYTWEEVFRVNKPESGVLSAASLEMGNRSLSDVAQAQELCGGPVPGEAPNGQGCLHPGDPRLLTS

| Structure (SMILES) | pIC50 |
| --- | --- |
| O=c1cc(-c2ccc3c(c2)OCCO3)[nH]c2c(-c3cccnc3)c(O)nn12 | ≥ 5.00 |
| COc1cc2[nH]nnc2cc1-c1cc(=O)n2nc(O)c(-c3ccccn3)c2[nH]1 | ≥ 5.00 |
| O=c1cc(-c2ccccc2)[nH]c2c(-c3cccnc3)c(O)nn12 | ≥ 5.00 |
| Nc1nn2c(=O)cc(-c3ccc4occc4c3)[nH]c2c1-c1ccccn1 | ≥ 5.00 |
| CCC(=O)Nc1nn2c(=O)cc(-c3ccc4c(c3)OCO4)[nH]c2c1-c1ccccn1 | ≥ 5.00 |
| CNC(=O)Oc1ccc(-c2cc(=O)n3nc(C)c(-c4ccccn4)c3[nH]2)cc1 | ≥ 5.00 |
| Cc1nn2c(=O)cc(-c3ccc(O)cc3)[nH]c2c1-c1ccccc1 | ≥ 5.00 |
| O=c1cc(-c2ccc3c(c2)OCCO3)[nH]c2c(-c3ccc(Br)cc3)cnn12 | ≥ 5.00 |
| COc1c(-c2cc(=O)n3nc(O)c(-c4ccccn4)c3[nH]2)ccc2[nH]nnc12 | ≥ 5.00 |
| O=c1cc(-c2ccc3[nH]nnc3c2)[nH]c2c(-c3ccccc3)c(O)nn12 | ≥ 5.00 |
| COc1ccc(-c2c(C)nn3c(=O)cc(-c4ccc5c(c4)OCCO5)[nH]c23)cc1 | ≥ 5.00 |
| O=c1cc(-c2ccc3c(c2)OCCO3)[nH]c2c(-c3ccc(F)cc3)cnn12 | ≥ 5.00 |
| Cc1nn2c(=O)cc(-c3ccc4[nH]nnc4c3)[nH]c2c1-c1ccccn1 | ≥ 5.00 |
| CCc1nn2c(=O)cc(-c3ccc(Cl)cc3)[nH]c2c1-c1ccccn1 | ≥ 5.00 |
| Nc1nn2c(=O)cc(-c3ccc(F)cc3F)[nH]c2c1-c1ccccn1 | ≥ 5.00 |
| COc1nn2c(=O)cc(-c3ccc4c(c3)OCO4)[nH]c2c1-c1ccccn1 | ≥ 5.00 |
| Cc1n[nH]c2ccc(-c3cc(=O)n4nc(N)c(-c5ccccn5)c4[nH]3)cc12 | ≥ 5.00 |
| O=c1cc(-c2ccc3[nH]nnc3c2)[nH]c2c(Cc3ccccc3)c(O)nn12 | ≥ 5.00 |
| O=C(O)c1cnn2c(=O)cc(-c3ccc4c(c3)OCCO4)[nH]c12 | ≥ 5.00 |
| Cc1nn2c(=O)cc(-c3ccc4c(c3OC(C)C)OCO4)[nH]c2c1-c1ccccn1 | ≥ 5.00 |
| CCCc1cnn2c(=O)cc(-c3ccc4c(c3)OCO4)[nH]c12 | ≥ 5.00 |
| CNC(=O)Oc1ccc(-c2cc(=O)n3ncc(-c4ccccn4)c3[nH]2)cc1 | ≥ 5.00 |
| Cc1c(-c2cc(=O)n3nc(O)c(-c4ccccn4)c3[nH]2)ccc2c1OCO2 | ≥ 5.00 |

| Structure (SMILES) | pIC50 |
| --- | --- |
| COc1ccc(-c2c(C)nn3c(=O)cc(-c4ccc5ncccc5c4)[nH]c23)cc1 | ≥ 5.00 |
| CCc1nn2c(=O)cc(-c3ccc4c(cnn4C)c3)[nH]c2c1-c1ccccn1 | ≥ 5.00 |
| CCc1nn2c(=O)cc(-c3ccc4[nH]nnc4c3)[nH]c2c1-c1ccccc1 | ≥ 5.00 |
| COc1ccc(-c2cnn3c(=O)cc(-c4ccc5c(c4)OCCO5)[nH]c23)cc1 | ≥ 5.00 |
| Cn1ncc2cc(-c3cc(=O)n4ncc(-c5ccccn5)c4[nH]3)ccc21 | ≥ 5.00 |
| COc1c(-c2cc(=O)n3nc(C)c(-c4ccccn4)c3[nH]2)ccc2[nH]nnc12 | ≥ 5.00 |
| CCn1ncc2cc(-c3cc(=O)n4nc(NC(C)=O)c(-c5ccccn5)c4[nH]3)ccc21 | ≥ 5.00 |
| Cc1c(-c2cc(=O)n3nc(N)c(-c4ccccn4)c3[nH]2)ccc2[nH]nnc12 | ≥ 5.00 |
| O=c1cc(-c2ccc3c(c2)OCCO3)[nH]c2c(-c3ccc(N4CCOCC4)nc3)cnn12 | ≥ 5.00 |
| O=c1cc(-c2ccc3[nH]nnc3c2)[nH]c2c(-c3ccccn3)cnn12 | ≥ 5.00 |
| Nc1nn2c(=O)cc(-c3cc4ccccc4o3)[nH]c2c1-c1ccccn1 | ≥ 5.00 |
| CCC(=O)Nc1nn2c(=O)cc(-c3ccc4nn[nH]c4c3)[nH]c2c1-c1ccccn1 | ≥ 5.00 |
| Cc1c(-c2cc(=O)n3nc(O)c(-c4ccccn4)c3[nH]2)ccc2[nH]nnc12 | ≥ 5.00 |
| Cc1nn2c(=O)cc(-c3ccc4[nH]nnc4c3)[nH]c2c1Cc1ccccc1 | ≥ 5.00 |
| Cc1cc2[nH]nnc2cc1-c1cc(=O)n2ncc(-c3ccccn3)c2[nH]1 | ≥ 5.00 |
| O=C(c1cnn2c(=O)cc(-c3ccc4c(c3)OCCO4)[nH]c12)N1CCCC1 | ≥ 5.00 |
| Cc1nn2c(=O)cc(-c3ccc4[nH]nnc4c3)[nH]c2c1-c1ccc(Cl)cc1 | ≥ 5.00 |
| Cc1nn2c(=O)cc(-c3ccc4[nH]nnc4c3)[nH]c2c1-c1ccccc1 | ≥ 5.00 |
| Cc1cc2cc(-c3cc(=O)n4ncc(-c5ccccn5)c4[nH]3)ccc2o1 | ≥ 5.00 |
| O=c1cc(-c2ccc(Cl)cc2)[nH]c2c(Cc3ccccc3)cnn12 | ≥ 5.00 |
| Cc1ccc(-c2cc(=O)n3ncc(-c4ccccn4)c3[nH]2)cc1 | ≥ 5.00 |
| Nc1nn2c(=O)cc(-c3ccc(Cl)c(Cl)c3)[nH]c2c1-c1ccccn1 | ≥ 5.00 |
| N#Cc1c(O)nn2c(=O)cc(-c3ccc(Cl)cc3)[nH]c12 | ≥ 5.00 |

| Structure (SMILES) | pIC50 |
| --- | --- |
| Cc1cc2[nH]nnc2cc1-c1cc(=O)n2nc(N)c(-c3ccccn3)c2[nH]1 | ≥ 5.00 |
| Cc1c(-c2cc(=O)n3nc(N)c(-c4ccccn4)c3[nH]2)ccc2c1OCO2 | ≥ 5.00 |
| O=c1cc(-c2ccc3c(c2)OCO3)[nH]c2c(Cc3ccccn3)cnn12 | ≥ 5.00 |
| Nc1nn2c(=O)cc(-c3ccc4[nH]nnc4c3)[nH]c2c1Cc1ccccc1 | ≥ 5.00 |
| CC(C)Oc1c(-c2cc(=O)n3ncc(-c4ccccn4)c3[nH]2)ccc2c1OCO2 | ≥ 5.00 |
| O=c1cc(-c2ccc(Cl)cc2Cl)[nH]c2c(-c3ccccn3)cnn12 | ≥ 5.00 |
| Cc1cc2[nH]nnc2cc1-c1cc(=O)n2nc(O)c(-c3ccccn3)c2[nH]1 | ≥ 5.00 |
| COc1nn2c(=O)cc(-c3ccc(Cl)cc3)[nH]c2c1C#N | ≥ 5.00 |
| O=c1cc(-c2ccc(C(F)(F)F)cc2)[nH]c2c(-c3ccccn3)cnn12 | ≥ 5.00 |
| O=c1cc(-c2cccc(F)c2)[nH]c2c(-c3ccccn3)cnn12 | ≥ 5.00 |
| O=c1cc(-c2ccc(F)cc2F)[nH]c2c(-c3ccccn3)cnn12 | ≥ 5.00 |
| Cc1nn2c(=O)cc(-c3ccc4ncccc4c3)[nH]c2c1-c1ccc(F)cc1 | ≥ 5.00 |
| Cc1cc2cc(-c3cc(=O)n4nc(N)c(-c5ccccn5)c4[nH]3)ccc2o1 | ≥ 5.00 |
| Cn1ncc2cc(-c3cc(=O)n4nc(N)c(-c5ccccn5)c4[nH]3)ccc21 | ≥ 5.00 |
| Nc1nn2c(c1-c1ccccn1)CC(c1ccc3c(c1)OC(F)(F)O3)=CC2=O | ≥ 5.00 |
| O=c1cc(-c2ccccc2)[nH]c2c(-c3ccc(O)nc3)cnn12 | ≥ 5.00 |
| Cc1nn2c(=O)cc(-c3ccc4c(c3C)OCO4)[nH]c2c1-c1ccccn1 | ≥ 5.00 |
| COc1c(-c2cc(=O)n3ncc(-c4ccccn4)c3[nH]2)ccc2c1OCO2 | ≥ 5.00 |
| Cn1nnc2cc(-c3cc(=O)n4nc(N)c(-c5ccccn5)c4[nH]3)ccc21 | ≥ 5.00 |
| COc1c(-c2cc(=O)n3nc(N)c(-c4ccccn4)c3[nH]2)ccc2[nH]nnc12 | ≥ 5.00 |
| COc1cc(Cl)ccc1-c1cc(=O)n2ncc(-c3ccccn3)c2[nH]1 | ≥ 5.00 |
| O=c1cc(-c2ccc3c(c2)OCCO3)[nH]c2c(-c3cccc(Cl)c3)cnn12 | ≥ 5.00 |
| CCCNC(=O)c1c(N)nn2c(=O)cc(-c3ccc4c(c3)OCO4)[nH]c12 | ≥ 5.00 |

| Structure (SMILES) | pIC50 |
| --- | --- |
| Cc1nn2c(=O)cc(-c3ccc4[nH]nnc4c3C)[nH]c2c1-c1ccccn1 | ≥ 5.00 |
| CC(=O)Nc1nn2c(=O)cc(-c3ccc4[nH]nnc4c3)[nH]c2c1-c1ccccn1 | ≥ 5.00 |
| CS(=O)(=O)c1ccc(-c2cc(=O)n3ncc(-c4ccccn4)c3[nH]2)cc1 | ≥ 5.00 |
| CCc1nn2c(=O)cc(-c3ccc4[nH]ncc4c3)[nH]c2c1-c1ccccn1 | ≥ 5.00 |
| O=c1cc(-c2ccc3[nH]nnc3c2)[nH]c2c(Cc3ccccc3)cnn12 | ≥ 5.00 |
| CCCNC(=O)c1c(O)nn2c(=O)cc(-c3ccc4[nH]nnc4c3)[nH]c12 | ≥ 5.00 |
| Nc1nn2c(=O)cc(-c3cccc(F)c3)[nH]c2c1-c1ccccn1 | ≥ 5.00 |
| Nc1nn2c(=O)cc(-c3ccc(C(F)(F)F)cc3)[nH]c2c1-c1ccccn1 | ≥ 5.00 |
| COc1cc(OC)cc(-c2cc(=O)n3ncc(-c4ccccn4)c3[nH]2)c1 | ≥ 5.00 |
| CCCNC(=O)c1c(N)nn2c(=O)cc(-c3ccc4c(c3)OCCO4)[nH]c12 | ≥ 5.00 |
| Cc1coc2ccc(-c3cc(=O)n4nc(N)c(-c5ccccn5)c4[nH]3)cc12 | ≥ 5.00 |
| O=c1cc(-c2ccc(-c3nnco3)cc2)[nH]c2c(-c3ccccn3)cnn12 | ≥ 5.00 |
| Cc1c(-c2cc(=O)n3ncc(-c4ccccn4)c3[nH]2)ccc2c1OCO2 | ≥ 5.00 |
| Cc1nn2c(=O)cc(-c3ccc4[nH]ccc4c3)[nH]c2c1-c1ccccc1 | ≥ 5.00 |
| CC(=O)Nc1nn2c(=O)cc(-c3ccc4[nH]ncc4c3)[nH]c2c1-c1ccccn1 | ≥ 5.00 |
| COc1ccc(-c2cnn3c(=O)cc(-c4ccccc4)[nH]c23)cn1 | ≥ 5.00 |
| O=c1cc(-c2ccccc2)[nH]c2c(-c3ccc(N4CCCCC4)nc3)cnn12 | ≤ 5.00 |
| Cc1n[nH]c2ccc(-c3cc(=O)n4ncc(-c5ccccn5)c4[nH]3)cc12 | ≥ 5.00 |
| CC(C)C(=O)Nc1nn2c(=O)cc(-c3ccc4c(c3)OCO4)[nH]c2c1-c1ccccn1 | ≥ 5.00 |
| Cn1nnc2cc(-c3cc(=O)n4ncc(-c5ccccn5)c4[nH]3)ccc21 | ≥ 5.00 |
| O=c1cc(-c2ccc(Cl)cc2F)[nH]c2c(-c3ccccn3)cnn12 | ≥ 5.00 |

target: Casein kinase II subunit alpha' (Homo sapiens, UniProt P19784); assay: Inhibition of GST-tagged full-length purified human CK2a2 using RRRDDDSDDD substrate incubated for 120 mins in presence of [33P]ATP by scintillation counting based biochemical assay
Sequence (P19784 whole entry): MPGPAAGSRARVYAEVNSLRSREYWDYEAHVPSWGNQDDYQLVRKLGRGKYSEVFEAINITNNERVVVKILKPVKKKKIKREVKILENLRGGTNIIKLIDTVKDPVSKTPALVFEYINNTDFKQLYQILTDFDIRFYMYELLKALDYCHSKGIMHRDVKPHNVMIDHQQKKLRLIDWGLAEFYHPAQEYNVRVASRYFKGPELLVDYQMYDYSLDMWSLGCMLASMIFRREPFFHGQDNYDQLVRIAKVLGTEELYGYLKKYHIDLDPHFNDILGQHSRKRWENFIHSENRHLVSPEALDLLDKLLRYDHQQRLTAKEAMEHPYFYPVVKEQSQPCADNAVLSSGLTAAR

| Structure (SMILES) | pIC50 |
| --- | --- |
| Cc1nn2c(=O)cc(-c3ccc4c(c3)OCCO4)[nH]c2c1-c1ccccn1 | ≥ 5.00 |
| O=c1cc(-c2ccc3c(c2)OCCO3)[nH]c2c(-c3cccnc3)cnn12 | ≥ 5.00 |
| COc1ccc(-c2cc(=O)n3ncc(-c4ccccn4)c3[nH]2)cc1 | ≥ 5.00 |
| O=c1cc(-c2ccc3c(c2)OCCO3)[nH]c2c(-c3ccccc3)cnn12 | ≥ 5.00 |
| O=c1cc(-c2ccc3c(c2)OCO3)[nH]c2c(-c3ccccn3)cnn12 | ≥ 5.00 |
| COc1ccc(-c2cc(=O)n3ncc(-c4ccc(F)cc4)c3[nH]2)cc1 | ≥ 5.00 |
| Cc1nn2c(=O)cc(-c3ccc4cc[nH]c4c3)[nH]c2c1Cc1ccccc1 | ≤ 5.00 |
| Cc1nn2c(=O)cc(-c3ccc4c(c3)CCO4)[nH]c2c1-c1ccccc1 | ≥ 5.00 |
| Cc1nn2c(=O)cc(-c3ccc4c(c3)OCCO4)[nH]c2c1-c1cccnc1 | ≥ 5.00 |
| Cc1nn2c(=O)cc(-c3ccc4c(c3)OCO4)[nH]c2c1-c1ccccc1 | ≥ 5.00 |
| O=c1cc(-c2ccc3c(c2)OCCO3)[nH]c2c(-c3ccccn3)cnn12 | ≥ 5.00 |
| Cc1nn2c(=O)cc(-c3ccc4c(c3)OCO4)[nH]c2c1-c1ccccn1 | ≥ 5.00 |
